These are literature values, as cited in paper PMC9653884, “Bisindolylmaleimides New Ligands of CaM Protein” (Molecules, 2022).

SMILES strings stand for the structures.

This series addresses CaM. The note with it: read-out: Kd of reported CaM inhibitor.
In the case of `CN(C)CCCN1c2ccccc2CCc2ccccc21` [Imipramine], the equilibrium dissociation constant (Kd) (commonly the constant that tells how readily two partners part at equilibrium) was 14 µM.
Consider `CC[C@]1(O)C[C@@H]2CN(CCc3c([nH]c4ccccc34)[C@@](C(=O)OC)(c3cc4c(cc3OC)N(C)[C@@H]3[C@]45CCN4CC=C[C@@](CC)(C[C@@]36OC(=O)N(CCCl)C6=O)[C@H]45)C2)C1` [KAR-2], for which the Kd was 5 µM.
Consider `NCCc1c[nH]c2ccc(O)cc12` [Serotonin], for which the Kd is 0.71 µM.
In the case of `NCCCCCCNS(=O)(=O)c1cccc2c(Cl)cccc12` [W7], the Kd is 7 µM.
